Measured values from ChEMBL document CHEMBL5537164, “Discovery of Potent, Orally Bioavailable, Tricyclic NLRP3 Inhibitors” (J Med Chem, 2024).

What was measured:
[1] = Half-life in Beagle dog at 1 mg/kg, po or 0.1 mg/kg, iv measured after 24 hrs by LC-MS/MS analysis; type: ADME, organism-based, Canis lupus familiaris; details: in vivo
[2] = Drug concentration in blood of C57BL/6 mouse model of acute peritonitis at 100 mg/kg, po preadministered with compound for 1 hrs followed by LPS stimulation for 2 hrs and measured 15 mins after ATP addition by HPLC-MS/MS analysis; type: ADME, organism-based; details: whole blood, read-out: Ct
[3] = Drug concentration in blood of C57BL/6 mouse model of acute peritonitis at 3 mg/kg, po preadministered with compound for 1 hrs followed by LPS stimulation for 2 hrs and measured 15 mins after ATP addition by HPLC-MS/MS analysis; type: ADME, organism-based; details: whole blood, read-out: Ct
[4] = In vivo inhibition of NLRP3 in LPS/ATP-induced C57BL/6 mouse model of acute peritonitis assessed as reduction in IL-1beta level at 50 mg/kg, po preadministered with compound for 1 hrs followed by LPS stimulation for 2 hrs and measured 15 mins after ATP addition by ELISA relative to control; type: functional; details: time 3.25 hrs
[5] = Drug concentration in brain of C57BL/6 mouse model of acute peritonitis at 50 mg/kg, po preadministered with compound for 1 hrs followed by LPS stimulation for 2 hrs and measured 15 mins after ATP addition by HPLC-MS/MS analysis; type: ADME, organism-based; details: read-out: Ct
[6] = molecular target: Synaptic vesicular amine transporter (Homo sapiens, UniProt Q05940); assay: Inhibition of VMAT-2 (unknown origin)
Synaptic vesicular amine transporter, sequence (Q05940 whole entry): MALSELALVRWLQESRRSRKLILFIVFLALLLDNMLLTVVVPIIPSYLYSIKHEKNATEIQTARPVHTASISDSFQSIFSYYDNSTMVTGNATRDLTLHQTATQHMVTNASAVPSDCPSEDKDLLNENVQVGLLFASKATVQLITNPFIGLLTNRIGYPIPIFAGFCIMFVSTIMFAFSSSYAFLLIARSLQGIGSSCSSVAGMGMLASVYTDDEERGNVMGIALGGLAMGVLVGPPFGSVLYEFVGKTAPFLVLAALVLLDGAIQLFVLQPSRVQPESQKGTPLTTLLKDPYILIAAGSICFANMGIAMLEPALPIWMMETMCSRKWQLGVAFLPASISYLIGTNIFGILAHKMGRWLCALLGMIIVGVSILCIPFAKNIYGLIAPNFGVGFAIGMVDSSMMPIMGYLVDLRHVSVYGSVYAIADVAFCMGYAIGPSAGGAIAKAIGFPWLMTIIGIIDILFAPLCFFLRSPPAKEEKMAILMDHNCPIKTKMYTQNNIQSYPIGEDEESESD

[7] = Drug metabolism in human liver microsomes assessed as N-demethylation of piperidine ring mediated metabolite formation; type: ADME, Microsome
[8] = Clearance in rat liver microsomes; type: ADME, Microsome; details: read-out: CLH
[9] = Protein binding in dog plasma; type: ADME, cell-free, Canis lupus familiaris; details: read-out: PPB (converted)
[10] = Protein binding in human plasma; type: ADME, cell-free; details: read-out: PPB (converted)
[11] = Clearance in Beagle dog assessed as hepatic blood flow at 1 mg/kg, po or 0.1 mg/kg, iv measured after 24 hrs by LC-MS/MS analysis; type: ADME, organism-based, Canis lupus familiaris, Liver; details: in vivo

- half-life [1]: 5.7 h
- concentration at 3.25 h [2]: 3670 nM
- concentration at 3.25 h [3]: 70 nM
- concentration at 3.25 h [5]: 398 nM
- IC50 [6]: 6.5 µM
- Drug metabolism [7]: Metabolite_Detected
- microsomal CLint [8]: 100 µL/min/mg
- fraction unbound [9]: 0.17
- fraction unbound [10]: 0.15
- LBF [11]: 40%
Compound: CN1CCC[C@@H](NC(=O)Cn2nc(C(C)(C)O)n3c(cc4sc(Cl)cc43)c2=O)C1
- inhibition in vivo at 50 mg/kg [4]: 90%
